Tests used:
[1] = target: T1, human full length PIK3KA Wild-type (p110α/p85α complex) (Homo sapiens, UniProt P42336); test: PI3K-alpha kinase (PIK3CA) biochemical activity, wild-type, ADP-Glo; details: PI3K-α (PIK3CA) biochemical, Soy PI lipid substrate
T1 construct: Recombinant, catalytically active human full length PIK3KA Wild-type and H1047R mutant were purchased as 1:1 complex; 6xHis (N); purchased EMD Millipore Sigma 14-602M
Procedure, shortened: (§1)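 ADP formation, read by ADP-Glo, is run to about 10% ATP turnover at 27 °C with 20 μM ATP and 50 μM PIP2diC8 or soy PI. WT or H1047R p110α/p85α (1–5 nM) is pre-incubated 1 h with compound in HEPES pH 7.4/MgCl2/Triton buffer, 1% DMSO. 10-point 1:3 series, logistic IC50 versus no-enzyme and DMSO controls.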

[2] = system: PI3K-α (PIK3CA) in MDA-MB-453 cells; test: PI3K-alpha kinase (PIK3CA) activity in vitro cell based assay, MDA-MB-453 cells, AlphaLisa SureFire; details: 0% FBS, 3 hours treatment, relative IC50
Protocol: PI3K-Alpha Kinase (PIK3CA) Activity In Vitro Cell Based Assay and Determining IC50 Values for Inhibitors
The MDA-MB-453 (ATCC-HTB-131) cell line was obtained from the American Type Culture Collection (Manassas, VA). Cells were maintained in Dulbecco's Modified Eagle Media (DMEM, Gibco 11965-092) supplemented with 10% Fetal Bovine Serum, heat inactivated (FBS HI, Gibco 10082-147), 1× non-essential amino acids (NEAA, Gibco 11140-050), and 1 mM sodium pyruvate (Gibco 11360-070). Cultures were maintained in a humidified incubator at 37° C. under 5% CO2/95% air.
For compound testing in 0% FBS, MDA-MB-453 cells were seeded at a density of 1.5×10^4 cells per well in white 384-well plates in 20 μl of Minimum Essential Media (MEM) assay media with 1×NEAA, 1 mM sodium pyruvate, and 1 μg/mL human insulin (Sigma I9278). Compounds dissolved in 10 mM stock solutions in DMSO were serially diluted 1:3 in DMSO to generate a 10-point dilution series and plated using an acoustic liquid handler system (Echo 550 Series Liquid Handler, Labcyte). A 5× intermediate compound dilution plate in MEM with 1×NEAA and 1 mM sodium pyruvate (150 μM starting compound concentration in 1.5% DMSO) was then prepared. Five μl of the intermediate serially diluted compounds were added to the cell plate to final concentrations ranging from […] in 0.3% DMSO. 0.3% DMSO alone was used to establish the maximum (MAX) signal and GDC-0032 at a final concentration of 1 μM was used as a reference compound for the minimum (MIN) signal. After 3 hours treatment, the medium was removed, and the cells lysed in 10 μL of 1× SureFire Lysis buffer with shaking for 10 minutes at room temperature. The Acceptor Mix (Reaction Buffer 1+Reaction Buffer 2+Activation Buffer+SureFire Ultra Acceptor Beads) was prepared by diluting Activation buffer 25-fold in combined Reaction Buffer 1 and Reaction Buffer 2. The Acceptor beads were diluted 50-fold in the combined Reaction Buffers. Five μL of Acceptor Mix was added to each well, the plate was sealed and covered with foil and incubated for 1 hour at room temperature. The Donor Mix (dilution buffer+SureFire Ultra Donor Beads) was prepared by diluting Donor Beads 50-fold in dilution buffer. Five μL of the Donor Mix was added to each well and the plate sealed and covered with foil and incubated for 1 hour at room temperature in the dark. The plates were read on a Neo2 plate reader instrument from Biotek using standard AlphaLisa settings. Compounds were tested in duplicate and the average % inhibition at each compound concentration was used to generate a single dose response curve. The data were processed using the Genedata-Screener tool. Relative IC50 values were determined using luminescence units by calculating percent inhibition with respect to the in-plate “MIN” (GDC-0032 reference control) and “MAX” (DMSO) controls. The data was analyzed using a 4-parameter nonlinear logistic equation (four-parameter logistic concentration-response curve): Y=bottom+[(top−bottom)/1+(X/IC50)slope] where Y=% inhibition, X=concentration of inhibitor, bottom=minimum value of y attained by curve-fit, top=maximum value of y attained by curve-fit and slope=steepness of curve at the IC50. % Inhibition=[(signal at X−median Min)/(median Max−median Min)]×100 IC50: concentration of compound that reduces a given response (ligand binding, enzyme response) by 50%. Relative IC50: concentration giving half the compound's maximum response.
For IC50 values shown in Table B, “A” means IC50<50 nM; “B” means IC50 ranging between 50 nM and 100 nM; “C” means IC50 ranging between 100 nM and 500 nM; “D” means IC50>500 nM.

[3] = target: T2, human full length PIK3KA H1047R mutant (p110α/p85α complex) (Homo sapiens, UniProt P42336, H1047R); test: PI3K-alpha kinase (PIK3CA) biochemical activity, H1047R mutant, ADP-Glo; details: PI3K-α (PIK3CA) biochemical, H1047R mutant, Soy PI lipid substrate
T2 construct: Recombinant, catalytically active human full length PIK3KA Wild-type and H1047R mutant were purchased as 1:1 complex; 6xHis (N); purchased EMD Millipore Sigma 14-792M
Procedure, shortened: as §1

T2 sequence (P42336 whole entry H1047R): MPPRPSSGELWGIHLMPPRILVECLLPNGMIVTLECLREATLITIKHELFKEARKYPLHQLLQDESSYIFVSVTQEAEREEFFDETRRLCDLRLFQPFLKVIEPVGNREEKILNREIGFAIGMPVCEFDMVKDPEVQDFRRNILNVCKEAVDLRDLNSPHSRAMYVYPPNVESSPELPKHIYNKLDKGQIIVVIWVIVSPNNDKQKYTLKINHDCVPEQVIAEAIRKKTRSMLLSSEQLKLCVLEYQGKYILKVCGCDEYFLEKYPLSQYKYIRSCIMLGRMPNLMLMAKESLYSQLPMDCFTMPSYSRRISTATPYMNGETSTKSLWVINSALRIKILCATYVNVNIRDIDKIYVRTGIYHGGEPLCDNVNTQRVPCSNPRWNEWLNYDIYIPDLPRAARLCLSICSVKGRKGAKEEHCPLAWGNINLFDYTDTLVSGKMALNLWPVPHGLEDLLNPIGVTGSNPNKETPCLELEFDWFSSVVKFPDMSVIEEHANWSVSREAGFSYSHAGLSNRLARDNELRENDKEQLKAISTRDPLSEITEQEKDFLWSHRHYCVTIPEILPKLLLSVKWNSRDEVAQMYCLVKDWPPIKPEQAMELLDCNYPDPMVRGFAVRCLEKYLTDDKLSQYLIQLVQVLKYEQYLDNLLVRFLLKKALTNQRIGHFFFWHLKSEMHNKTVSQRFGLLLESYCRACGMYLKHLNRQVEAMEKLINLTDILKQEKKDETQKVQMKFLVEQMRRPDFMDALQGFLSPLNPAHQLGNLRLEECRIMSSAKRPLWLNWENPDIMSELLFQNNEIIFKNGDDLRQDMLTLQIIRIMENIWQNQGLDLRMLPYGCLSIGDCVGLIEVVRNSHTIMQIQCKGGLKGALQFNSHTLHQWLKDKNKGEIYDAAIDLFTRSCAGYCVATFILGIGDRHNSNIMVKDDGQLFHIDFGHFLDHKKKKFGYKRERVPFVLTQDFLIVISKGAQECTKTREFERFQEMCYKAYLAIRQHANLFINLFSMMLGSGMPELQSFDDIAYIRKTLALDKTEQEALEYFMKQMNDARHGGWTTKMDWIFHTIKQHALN
T2 sequence (P27986 whole entry partner): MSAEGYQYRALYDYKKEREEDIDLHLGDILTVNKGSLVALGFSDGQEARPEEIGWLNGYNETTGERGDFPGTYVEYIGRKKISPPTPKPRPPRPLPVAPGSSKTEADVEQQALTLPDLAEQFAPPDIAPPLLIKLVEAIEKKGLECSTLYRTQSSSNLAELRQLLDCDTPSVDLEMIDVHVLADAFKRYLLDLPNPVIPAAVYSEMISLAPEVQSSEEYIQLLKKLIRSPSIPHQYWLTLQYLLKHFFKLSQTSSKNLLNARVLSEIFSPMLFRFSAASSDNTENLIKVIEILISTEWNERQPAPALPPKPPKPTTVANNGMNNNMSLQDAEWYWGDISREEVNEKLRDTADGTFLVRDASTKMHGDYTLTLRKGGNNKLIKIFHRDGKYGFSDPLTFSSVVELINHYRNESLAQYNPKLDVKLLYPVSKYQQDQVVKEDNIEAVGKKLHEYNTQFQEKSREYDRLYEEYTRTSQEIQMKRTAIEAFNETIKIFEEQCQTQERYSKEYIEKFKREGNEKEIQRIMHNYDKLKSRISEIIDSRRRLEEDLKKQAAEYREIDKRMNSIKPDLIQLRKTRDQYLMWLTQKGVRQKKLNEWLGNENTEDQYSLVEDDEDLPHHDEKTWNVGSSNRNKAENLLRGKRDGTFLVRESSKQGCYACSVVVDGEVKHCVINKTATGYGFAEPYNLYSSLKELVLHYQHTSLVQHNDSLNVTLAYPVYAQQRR

Compound | IC50 [1] | IC50 [2] | IC50 [3] | IC50 ([2]; Homo sapiens, MDA-MB-453, 3 h)
2-[[(1R)-1-[3,6-Dimethyl-4-oxo-2-[4-(1H-pyrazol-5-yl)phenyl]chromen-8-yl]ethyl]amino]benzoic acid [Example 169] | < 500 nM | < 50 nM | < 500 nM | –
Cc1cc(C(C)Nc2cccc(F)c2C(=O)O)c2oc(-c3cccc(F)c3)c(C)c(=O)c2c1 (single isomer, unassigned; isomer 1) [Example 105, 2-Fluoro-6-[1-[2-(3-fluorophenyl)-3,6-dimethyl-4-oxo-chromen-8-yl]ethylamino]benzoic acid, Isomer 1] | 1000 to 5000 nM | < 50 nM | < 500 nM | –
COc1ccc(NC(C)c2cc(C)cc3c(=O)c(C)c(-c4ccccc4)oc23)c(C(=O)O)n1 (single isomer, unassigned; isomer 1) [Example 109, 3-[1-(3,6-Dimethyl-4-oxo-2-phenyl-chromen-8-yl)ethylamino]-6-methoxy-pyridine-2-carboxylic acid, Isomer 1] | 500 to 1000 nM | < 50 nM | < 500 nM | –
Cc1cc([C@@H](C)Nc2ccc(C#N)nc2C(=O)O)c2oc(-c3ccccc3)c(C)c(=O)c2c1 (single isomer, unassigned; isomer 1) [Example 159] | 500 to 1000 nM | – | < 500 nM | < 50 nM
Cc1cc(C(C)Nc2cccc(F)c2C(=O)O)c2oc(-c3ccccc3F)c(C)c(=O)c2c1 (single isomer, unassigned; isomer 2) [Example 104, 2-Fluoro-6-[1-[2-(2-fluorophenyl)-3,6-dimethyl-4-oxo-chromen-8-yl]ethylamino]benzoic acid, Isomer 2] | > 10000 nM | – | 500 to 1000 nM | 100 to 500 nM
Cc1cc([C@@H](C)Nc2ccccc2C(=O)O)c2oc(-c3ccc(-c4ccc(C#N)cc4)cc3)c(C)c(=O)c2c1 [Example 172, 2-[[(1R)-1-[2-[4-(4-Cyanophenyl)phenyl]-3,6-dimethyl-4-oxo-chromen-8-yl]ethyl]amino]benzoic acid] | – | – | – | 50 to 100 nM
Cc1cc([C@@H](C)Nc2ccccc2C(=O)O)c2oc(-c3ccc(-c4cccc(C#N)c4)cc3)c(C)c(=O)c2c1 [Example 173, 2-[[(1R)-1-[2-[4-(3-Cyanophenyl)phenyl]-3,6-dimethyl-4-oxo-chromen-8-yl]ethyl]amino]benzoic acid] | – | – | – | 50 to 100 nM
Cc1cc([C@@H](C)Nc2ccccc2C(=O)O)c2oc(-c3ccc(-c4ccccc4C#N)cc3)c(C)c(=O)c2c1 [Example 177, 2-[[(1R)-1-[2-[4-(2-Cyanophenyl)phenyl]-3,6-dimethyl-4-oxo-chromen-8-yl]ethyl]amino]benzoic acid] | – | – | – | < 50 nM

Continued, values first:

IC50 [1] | IC50 [2] | IC50 [3] | IC50 ([2]; Homo sapiens, MDA-MB-453, 3 h) | Compound
> 10000 nM | – | > 10000 nM | > 500 nM | Cc1cc(C(C)Nc2ccccc2C(=O)O)c2oc(-c3cccc(C(C)(C)C#N)c3)cc(=O)c2c1 (single isomer, unassigned; isomer 1) [Example 4, 2-[1-[2-[3-(1-Cyano-1-methyl-ethyl)phenyl]-6-methyl-4-oxo-chromen-8-yl]ethylamino]benzoic acid, Isomer 1]
5000 to 10000 nM | – | 5000 to 10000 nM | > 500 nM | Cc1cc(C(C)Nc2ccccc2C(=O)O)c2oc(-c3ccc(C4(C#N)CC4)cc3)cc(=O)c2c1 (single isomer, unassigned; isomer 1) [Example 52, 2-[1-[2-[4-(l-Cyanocyclopropyl)phenyl]-6-methyl-4-oxo-chromen-8-yl]ethylamino]benzoic acid, Isomer 1]
1000 to 5000 nM | – | < 500 nM | < 50 nM | Cc1cc(C(C)Nc2ccccc2C(=O)O)c2oc(-c3ccccc3)c(F)c(=O)c2c1 (single isomer, unassigned; isomer 1) [Example 132, 2-[1-(3-Fluoro-6-methyl-4-oxo-2-phenyl-chromen-8-yl)ethylamino]benzoic acid, Isomer 1]
5000 to 10000 nM | > 500 nM | 5000 to 10000 nM | – | Cc1cc([C@@H](C)Nc2ccc(C#N)cc2C(=O)O)c2oc(-c3ccccc3)c(C)c(=O)c2c1 (single isomer, unassigned; isomer 1) [Example 157]
> 10000 nM | – | 5000 to 10000 nM | > 500 nM | Cc1cc(C(C)Nc2ccccc2C(=O)O)c2oc(-c3ccc(C(=O)N(C)C)cc3)cc(=O)c2c1 (single isomer, unassigned; isomer 2) [Example 50, 2-[1-[2-[4-(Dimethylcarbamoyl)-phenyl]-6-methyl-4-oxo-chromen-8-yl]ethylamino]benzoic acid, Isomer 2]
1000 to 5000 nM | – | < 500 nM | 100 to 500 nM | Cc1cc(C(C)Nc2ccccc2C(=O)O)c2oc(-c3ccc(N4CCCC4)cc3)cc(=O)c2c1 (single isomer, unassigned; isomer 2) [Example 55, 2-[1-[6-Methyl-4-oxo-2-(4-pyrrolidin-1-ylphenyl)chromen-8-yl]ethylamino]benzoic acid, Isomer 2]
< 500 nM | – | < 500 nM | < 50 nM | Cc1cc(C(C)Nc2ccccc2C(=O)O)c2oc(-c3ccccc3)c(C#N)c(=O)c2c1 (single isomer, unassigned; isomer 2) [Example 62, 2-[1-(3-Cyano-6-methyl-4-oxo-2-phenyl-chromen-8-yl)ethylamino]benzoic acid, Isomer 2]
– | – | – | < 50 nM | Cc1cc([C@@H](C)Nc2ccccc2C(=O)O)c2oc(-c3cccc(-c4ccccc4C#N)c3)c(C)c(=O)c2c1 [Example 174, 2-[[(1R)-1-[2-[3-(2-Cyanophenyl)phenyl]-3,6-dimethyl-4-oxo-chromen-8-yl]ethyl]amino]benzoic acid]
– | – | – | 50 to 100 nM | Cc1cc([C@@H](C)Nc2ccccc2C(=O)O)c2oc(-c3cccc(-c4ccc(C#N)cc4)c3)c(C)c(=O)c2c1 [Example 175, 2-[[(1R)-1-[2-[3-(4-Cyanophenyl)phenyl]-3,6-dimethyl-4-oxo-chromen-8-yl]ethyl]amino]benzoic acid]
– | – | – | 50 to 100 nM | Cc1cc([C@@H](C)Nc2ccccc2C(=O)O)c2oc(-c3cccc(-c4cccc(C#N)c4)c3)c(C)c(=O)c2c1 [Example 176, 2-[[(1R)-1-[2-[3-(3-Cyanophenyl)phenyl]-3,6-dimethyl-4-oxo-chromen-8-yl]ethyl]amino]benzoic acid]
– | – | – | < 50 nM | Cc1cc([C@@H](C)Nc2ccccc2C(=O)O)c2oc(-c3cccc(-n4cc(C#N)cn4)c3)c(C)c(=O)c2c1 [Example 178, 2-[[(1R)-1-[2-[3-(4-Cyanopyrazol-1-yl)phenyl]-3,6-dimethyl-4-oxo-chromen-8-yl]ethyl]amino]benzoic acid 2,2,2-trifluoroacetic acid]
